Assay: molar heat capacity at constant pressure
Conditions: 101.33 kPa, Vacuum adiabatic calorimetry

CC(C)(C)c1ccc(-c2ccccc2)cc1 [4-(1,1-dimethylethyl)-1,1'-biphenyl]
Conditions	molar heat capacity at constant pressure [J/K/mol]
156.5 K, Crystal	164.59
157.48 K, Crystal	165.54
158.46 K, Crystal	168.2
159.4 K, Crystal	167.88
160.49 K, Crystal	170.03
162.35 K, Crystal	170.22
163.32 K, Crystal	171.45
164.3 K, Crystal	171.68
165.27 K, Crystal	172.24
166.24 K, Crystal	173.77
167.21 K, Crystal	175.03
168.17 K, Crystal	175.74
169.13 K, Crystal	176.91
170.1 K, Crystal	177.85
171.06 K, Crystal	178.74
172.03 K, Crystal	179.57
172.99 K, Crystal	180.33
173.96 K, Crystal	181.16
174.88 K, Crystal	181.91
175.84 K, Crystal	182.48
176.8 K, Crystal	183.39
177.75 K, Crystal	184.41
178.71 K, Crystal	186.15
179.67 K, Crystal	186.69
180.62 K, Crystal	187.72
181.58 K, Crystal	187.66
182.53 K, Crystal	188.58
183.48 K, Crystal	190.07
184.43 K, Crystal	190.57
185.38 K, Crystal	191.97
186.33 K, Crystal	192.5
187.27 K, Crystal	193.52
188.22 K, Crystal	194.65
189.16 K, Crystal	195.58
190.05 K, Crystal	196.73
190.99 K, Crystal	197.88
191.93 K, Crystal	198.13
192.87 K, Crystal	199.81
193.81 K, Crystal	200.3
194.75 K, Crystal	200.51
195.68 K, Crystal	201.32
196.61 K, Crystal	203.32
197.55 K, Crystal	203.52
198.48 K, Crystal	205.18
199.41 K, Crystal	205.85
200.34 K, Crystal	205.72
201.52 K, Crystal	207.22
202.94 K, Crystal	208.68
204.37 K, Crystal	210.19
205.79 K, Crystal	211.33
207.14 K, Crystal	212.7
208.55 K, Crystal	214.44
209.96 K, Crystal	215.21
211.37 K, Crystal	217.19
212.78 K, Crystal	218.22
214.19 K, Crystal	219.53
215.59 K, Crystal	220.68
216.99 K, Crystal	222.17
218.39 K, Crystal	224.18
219.79 K, Crystal	225.72
221.18 K, Crystal	226.72
222.9 K, Crystal	227.94
224.62 K, Crystal	229.7
226 K, Crystal	231.67
227.39 K, Crystal	232.23
228.77 K, Crystal	233.85
230.14 K, Crystal	234.83
231.52 K, Crystal	236.49
232.88 K, Crystal	237.84
234.25 K, Crystal	239.02
235.61 K, Crystal	240.58
236.97 K, Crystal	241.66
238.33 K, Crystal	243.18
239.69 K, Crystal	244.52
241.05 K, Crystal	245.68
242.4 K, Crystal	247.57
243.75 K, Crystal	248.49
244.98 K, Crystal	249.71
246.33 K, Crystal	251.82
247.66 K, Crystal	253.81
249 K, Crystal	254.6
250.34 K, Crystal	256.26
251.68 K, Crystal	256.95
253.01 K, Crystal	258.51
254.34 K, Crystal	259.55
255.66 K, Crystal	261.49
256.97 K, Crystal	262.33
258.29 K, Crystal	263.11
259.61 K, Crystal	265.21
260.92 K, Crystal	267.1
262.23 K, Crystal	268.4
263.54 K, Crystal	269.72
264.84 K, Crystal	270.96
265.99 K, Crystal	271.74
267.28 K, Crystal	273.32
268.57 K, Crystal	275.22
269.86 K, Crystal	276.29
271.15 K, Crystal	277.98
272.43 K, Crystal	280.14
273.71 K, Crystal	281.15
274.98 K, Crystal	281.51
276.26 K, Crystal	282.58
277.52 K, Crystal	284.25
278.79 K, Crystal	285.49
280.04 K, Crystal	286.95
281.3 K, Crystal	288.13
282.55 K, Crystal	289.87
283.8 K, Crystal	290.87
285.04 K, Crystal	291.7
286.08 K, Crystal	293.13
287.32 K, Crystal	295.16
288.53 K, Crystal	295.47
289.76 K, Crystal	296.85
292.2 K, Crystal	299.34
293.41 K, Crystal	300.48
294.63 K, Crystal	301.51
295.83 K, Crystal	302.32
297.03 K, Crystal	303.76
298.23 K, Crystal	303.58
299.42 K, Crystal	305.47
300.61 K, Crystal	306.04
301.79 K, Crystal	308.28
302.89 K, Crystal	309.67
303.99 K, Crystal	310.47
305.04 K, Crystal	312.55
306.34 K, Crystal	313.92
307.46 K, Crystal	315.51
308.62 K, Crystal	315.74
309.76 K, Crystal	319.18
310.9 K, Crystal	320.42
312.03 K, Crystal	320.51
313.15 K, Crystal	321.63
314.25 K, Crystal	323.46
315.35 K, Crystal	326.54
316.44 K, Crystal	326.58
317.52 K, Crystal	328.97
318.58 K, Crystal	333.26
325.87 K, Liquid	381
327.07 K, Liquid	382.02
328.07 K, Liquid	382.22
329.06 K, Liquid	382.84
330.05 K, Liquid	383.2
331.03 K, Liquid	383.56
332.01 K, Liquid	384.21
332.98 K, Liquid	384.73
333.94 K, Liquid	386.4
334.9 K, Liquid	386.26
335.85 K, Liquid	387.48
336.8 K, Liquid	388
337.74 K, Liquid	388.46
338.68 K, Liquid	388.8
339.61 K, Liquid	389.81
340.53 K, Liquid	390.68
340.99 K, Liquid	390.97
341.91 K, Liquid	391.9
342.82 K, Liquid	392.95
343.73 K, Liquid	393.35
344.62 K, Liquid	393.96
345.52 K, Liquid	394.82
346.4 K, Liquid	396.04
347.28 K, Liquid	396.15
348.16 K, Liquid	397.03
349.03 K, Liquid	396.87
349.89 K, Liquid	397.86
350.75 K, Liquid	398.4
351.6 K, Liquid	397.8
352.45 K, Liquid	397.92
354.12 K, Liquid	401.27
354.41 K, Liquid	401.25
355.24 K, Liquid	400.85
356.06 K, Liquid	400.95
356.87 K, Liquid	401.61
357.67 K, Liquid	402.4
358.47 K, Liquid	402.62
359.27 K, Liquid	402.51
360.06 K, Liquid	402.5
360.84 K, Liquid	404.15
361.61 K, Liquid	405.1
362.38 K, Liquid	405.27
363.15 K, Liquid	406.09
363.91 K, Liquid	406.9
364.66 K, Liquid	406.47
365.41 K, Liquid	407.47
366.15 K, Liquid	407.61
366.27 K, Liquid	407.63
367.01 K, Liquid	406.87
367.73 K, Liquid	408.31
368.45 K, Liquid	410.51
369.17 K, Liquid	410.57
369.88 K, Liquid	409.74
370.58 K, Liquid	410.84
